Measured values taken from patent US6638972B2, “Chroman and benzofuran derivatives as 5-hydroxytryptamine-6 ligands” (Wyeth, priority 2001, dated 2003).
Counter-ions that a name gives are not always drawn. Like-named read-outs stand apart in the source and are kept apart here.

Key:
[1] = molecular target: T1, human cloned 5-HT6 receptors (Homo sapiens, UniProt P50406); experiment: 5-HT6 binding affinity ([3H]-LSD displacement, membranes of Hela cells expressing human cloned 5-HT6 receptors); settings: [3H]-LSD 3.0 nM, Hela cell membranes, 120 min at room temperature
T1 construct: expressed in transfected cells; host or cells: HeLa cells (membrane preparation)
T1 sequence (P50406 whole entry): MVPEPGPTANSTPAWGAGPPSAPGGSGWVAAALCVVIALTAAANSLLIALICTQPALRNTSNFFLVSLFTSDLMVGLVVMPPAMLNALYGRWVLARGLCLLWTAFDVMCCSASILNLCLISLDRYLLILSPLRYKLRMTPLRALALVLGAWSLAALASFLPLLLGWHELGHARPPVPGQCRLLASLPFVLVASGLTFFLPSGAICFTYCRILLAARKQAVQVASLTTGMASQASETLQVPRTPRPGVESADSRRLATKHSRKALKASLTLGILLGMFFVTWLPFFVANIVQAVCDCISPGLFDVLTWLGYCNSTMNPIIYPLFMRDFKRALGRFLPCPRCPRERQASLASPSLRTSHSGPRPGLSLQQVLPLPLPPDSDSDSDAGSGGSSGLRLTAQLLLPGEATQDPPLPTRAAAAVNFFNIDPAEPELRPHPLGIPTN
Procedure: The affinity of test compounds for the serotonin 5-T6 receptor is evaluated in the following manner. Cultured Hela cells expressing human cloned 5-HT6 receptors are harvested and centrifuged at low speed (1,000×g) for 10.0 min to remove the culture media. The harvested cells are suspended in half volume of fresh physiological phosphate buffered saline solution and recentrifuged at the same speed. This operation is repeated. The collected cells are then homogenized in ten volumes of 50 mM Tris.HCl (pH 7.4) and 0.5 mM EDTA. The homogenate is centrifuged at 40,000×g for 30.0 min and the precipitate is collected. The obtained pellet is resuspended in 10 volumes of Tris.HCl buffer and recentrifuged at the same speed. The final pellet is suspended in a small volume of Tris.HCl buffer and the tissue protein content is determined in aliquots of 10-25 μl volumes. Bovine Serum Albumin is used as the standard in the protein determination according to the method described in Lowry et al., J. Biol. Chem., 193:265 (1951). The volume of the suspended cell membranes is adjusted to give a tissue protein concentration of 1.0 mg/ml of suspension. The prepared membrane suspension (10 times concentrated) is aliquoted in 1.0 ml volumes and stored at −70° C. until used in subsequent binding experiments.
Binding experiments are performed in a 96 well microtiter plate format, in a total volume of 200 μl. […] The test compounds are added in 20.0 μl volume.
The reaction is allowed to proceed in the dark for 120 min at room temperature, at which time, the bound ligand-receptor complex is filtered off on a 96 well unifilter with a Packard Filtermate® 196 Harvester. The bound complex caught on the filter disk is allowed to air dry and the radioactivity is measured in a Packard TopCount® equipped with six photomultiplier detectors, after the addition of 40.0 μl Microscint®-20 scintillant to each shallow well. The unifilter plate is heat-sealed and counted in a PackardTopCount® with a tritium efficiency of 31.0%.
Binding in the presence of varying concentrations of test compound is expressed as a percentage of specific binding in the absence of test compound. The results are plotted as log % bound versus log concentration of test compound. […] A linear regression line of data points is plotted, from which the IC50 value is determined and the Ki value is determined based upon the following equation: […]
where L is the concentration of the radioactive ligand used and KD is the dissociation constant of the ligand for the receptor, both expressed in nM.

Compound	melting point	Ki ([1]; read-out: 5-HT6 Binding Ki)	Ki ([1]; 5-HT6 Binding Ki)
Cc1nc(COc2ccc3c(c2)OC(CNCCCO)CC3)cs1 (stereo not shown) (as salt: HCl) [Example 24, 3-{[7-(2-methyl-thiazol-4-ylmethoxy)-chroman-2-ylmethyl]-amino}-propan-1-ol]	123 to 128 °C		
CCCCOCCCNCC1CCc2ccc(OCc3ccccc3)cc2O1 (stereo not shown) (as salt: hydrochloride) [Example 8, (7-benzyloxy-chroman-2-ylmethyl)-(3-butoxy-propyl)-amine]	130 to 132 °C		
OCCNCC1CCc2ccc(OCc3ccccc3)cc2O1 (stereo not shown) (as salt: hydrochloride) [Example 9, 2-[(7-benzyloxy-chroman-2-ylmethyl)-amino]-ethanol]	200 to 201 °C		
c1ccc(CCCNCC2CCc3ccc(OCc4ccccc4)cc3O2)cc1 (stereo not shown) (as salt: hydrochloride) [Example 10, (7-benzyloxy-chroman-2-ylmethyl)-(3-phenyl-propyl)-amine]	138 to 139 °C		
c1ccc(COCCCNCC2CCc3ccc(OCc4ccccc4)cc3O2)cc1 (stereo not shown) (as salt: hydrochloride) [Example 11, (7-benzyloxy-chroman-2-ylmethyl)-(3-benzyloxy-propyl)-amine]	138 to 139 °C		
CCCCNCC1CCc2ccc(OCc3ccccc3)cc2O1 (stereo not shown) (as salt: hydrochloride) [Example 12, (7-benzyloxy-chroman-2-ylmethyl)-butyl-amine]	150 to 151 °C		
OCCCNCC1CCc2ccc(OCC3CCCCC3)cc2O1 (stereo not shown) (as salt: hydrochloride) [Example 13, 3-[(7-cyclohexylmethoxy-chroman-2-ylmethyl)-amino]-propan-1-ol]	159 to 160 °C		
OCCCNCC1CCc2ccc(OCc3ccccc3Cl)cc2O1 (stereo not shown) (as salt: hydrochloride) [Example 14, 3-{[7-(2-chloro-benzyloxy)-chroman-2-ylmethyl]-amino}-propan-1-ol]	114 to 115 °C		
OCCCNCC1CCc2ccc(Oc3ccccc3)cc2O1 (stereo not shown) (as salt: hydrochloride) [Example 15, 3-[(7-phenoxy-chroman-2-ylmethyl)-amino]-propan-1-ol]	178 to 179 °C		
Cc1nc(COc2ccc3c(c2)OC(CNCCCO)CC3)cs1 (stereo not shown) (as salt: salt) [Example 23, 3-{[7-(2-methyl-thiazol-4-ylmethoxy)-chroman-2-ylmethyl]-amino}-propan-1-ol]	94 to 102 °C		
NCC1CCc2ccc(OCc3ccccc3)cc2O1 (stereo not shown) [Example 6, [(7-Benzyloxy)chroman-2-yl]methylamine Hydrochloride]		15 nM	
c1ccc(CNCC2CCc3ccc(OCc4ccccc4)cc3O2)cc1 (stereo not shown) [Example 7, Benzyl-[(7-benzyloxy)chroman-2-yl]methylamine Hydrochloride]		26 nM	
CCCCOCCCNCC1CCc2ccc(OCc3ccccc3)cc2O1 (stereo not shown) [Example 8, (7-benzyloxy-chroman-2-ylmethyl)-(3-butoxy-propyl)-amine]		16 nM	
OCCNCC1CCc2ccc(OCc3ccccc3)cc2O1 (stereo not shown) [Example 9, 2-[(7-benzyloxy-chroman-2-ylmethyl)-amino]-ethanol]		12 nM	
c1ccc(CCCNCC2CCc3ccc(OCc4ccccc4)cc3O2)cc1 (stereo not shown) [Example 10, (7-benzyloxy-chroman-2-ylmethyl)-(3-phenyl-propyl)-amine]		44 nM	
c1ccc(COCCCNCC2CCc3ccc(OCc4ccccc4)cc3O2)cc1 (stereo not shown) [Example 11, (7-benzyloxy-chroman-2-ylmethyl)-(3-benzyloxy-propyl)-amine]		27 nM	
CCCCNCC1CCc2ccc(OCc3ccccc3)cc2O1 (stereo not shown) [Example 12, (7-benzyloxy-chroman-2-ylmethyl)-butyl-amine]		43 nM	
OCCCNCC1CCc2ccc(OCC3CCCCC3)cc2O1 (stereo not shown) [Example 13, 3-[(7-cyclohexylmethoxy-chroman-2-ylmethyl)-amino]-propan-1-ol]		357 nM	
OCCCNCC1CCc2ccc(OCc3ccccc3Cl)cc2O1 (stereo not shown) [Example 14, 3-{[7-(2-chloro-benzyloxy)-chroman-2-ylmethyl]-amino}-propan-1-ol]		38 nM	

Compound	melting point	Ki ([1]; read-out: 5-HT6 Binding Ki)	Ki ([1]; 5-HT6 Binding Ki)
OCCCNCC1CCc2ccc(Oc3ccccc3)cc2O1 (stereo not shown) [Example 15, 3-[(7-phenoxy-chroman-2-ylmethyl)-amino]-propan-1-ol]		283 nM	
OCCCNCC1CCc2ccc(OCCc3ccccc3)cc2O1 (stereo not shown) [Example 22, 3-{[(7-(Phenethyloxy)chroman-2-ylmethyl]amino}propan-1-ol Hydrochloride]		101 nM	
Cc1nc(COc2ccc3c(c2)OC(CNCCCO)CC3)cs1 (stereo not shown) [Example 23, 3-{[7-(2-methyl-thiazol-4-ylmethoxy)-chroman-2-ylmethyl]-amino}-propan-1-ol]			41 nM
Cc1nc(COc2ccc3c(c2)OC(CNCCCO)CC3)cs1 (stereo not shown) [Example 24, 3-{[7-(2-methyl-thiazol-4-ylmethoxy)-chroman-2-ylmethyl]-amino}-propan-1-ol]			120 nM
OCCCNCC1CCc2cc(Cl)c(OCc3ccccc3)cc2O1 (stereo not shown) [Example 29, 3-{[(7-Benzyloxy)-6-chlorochroman-2-ylmethyl]amino}propan-1-ol Fumaric Acid Salt]		34 nM	
CN(CCCO)CC1CCc2ccc(OCc3ccccc3)cc2O1 (stereo not shown) [Example 30, 3-{[(7-benzyloxy)chroman-2-ylmethyl]methylamino}propan-1-ol Fumaric Acid Salt]		27 nM	
O=[N+]([O-])c1ccc(OCCCNCC2CCc3ccc(OCc4ccccc4)cc3O2)cc1 (stereo not shown) [Example 32, (7-benzyloxy-chroman-2-ylmethyl)-[3-(4-nitro-phenoxy)-propyl]-amine]	118 to 120 °C	157 nM	
O=[N+]([O-])c1cccc(OCCCNCC2CCc3ccc(OCc4ccccc4)cc3O2)c1 (stereo not shown) [Example 33, (7-benzyloxy-chroman-2-ylmethyl)-[3-(3-nitro-phenoxy)-propyl]-amine]	82 to 87 °C	69 nM	
Clc1cccc(OCCCNCC2CCc3ccc(OCc4ccccc4)cc3O2)c1 (stereo not shown) [Example 34, (7-benzyloxy-chroman-2-ylmethyl)-[3-(3-chloro-phenoxy)-propyl]-amine]	110 to 116 °C	192 nM	
O=c1ccc2ccc(OCCCNCC3CCc4ccc(OCc5ccccc5)cc4O3)cc2o1 (stereo not shown) [Example 35, 7-{3-[(7-benzyloxy-chroman-2-ylmethyl)-amino]-propoxy}-chromen-2-one]	63 to 68 °C	29 nM	
O=c1ccc2ccc(OCCCNCC3CCc4cc(Cl)c(OCc5ccccc5)cc4O3)cc2o1 (stereo not shown) [Example 36, 7-{3-[(7-benzyloxy-6-chloro-chroman-2-ylmethyl)-amino]-propoxy}-chromen-2-one]	92 to 95 °C	43 nM	
OC[C@H](CSCc1ccccc1)NCC1CCc2ccc(OCc3ccccc3)cc2O1 (stereo partly drawn) [Example 37, (2R)-2-[(7-benzyloxy-chroman-2-ylmethyl)-amino]-3-benzylsulfanyl-propan-1-ol]	59 to 65 °C	303 nM	
OCCCNCCC1CCc2ccc(OCc3ccccc3)cc2O1 (stereo not shown) [Example 42, 3-{[2-(7-Benzyloxy)chroman-2-yl]ethylamino}propan-1-ol Hydrochloride]		107 nM	
OCCNC[C@H]1CCc2ccc(OCc3ccccc3)cc2O1 [Example 44]	196 to 197 °C	10 nM	
OCCCNC[C@H]1CCc2ccc(OCc3ccccc3)cc2O1 [Example 45, 3-{[(2R)-7-benzyloxy-chroman-2-ylmethyl]-amino}-propan-1-ol]	119 °C	9 nM	
COCCCNC[C@H]1CCc2ccc(OCc3ccccc3)cc2O1 [Example 46, [(2R)-7-benzyloxy-chroman-2-ylmethyl]-(3-methoxy-propyl)-amine]	128 to 129 °C	25 nM	
OCCNCC1Cc2ccc(OCc3ccccc3)cc2O1 (stereo not shown) [Example 51, 2-{[6-(Benzyloxy)-2,3-dihydrobenzofuran-2-ylmethyl]amino}ethanol Hydrochloride]		386 nM	
OCCCNCC1Cc2ccc(OCc3ccccc3)cc2O1 (stereo not shown) [Example 53, 3-[(6-benzyloxy-2,3-dihydro-benzofuran-2-ylmethyl)-amino]-propan-1-ol]	125 to 127 °C	339 nM	
c1ccc(CNCc2cc3ccc(OCc4ccccc4)cc3o2)cc1 [Example 54, benzyl-(6-benzyloxy-benzofuran-2-ylmethyl)-amine]	198 to 200 °C	1350 nM	
